Experimental data published in patent US4316891A, “Extended N-terminal somatostatin” (The Salk Institute for Biological Studies, priority 1980, dated 1982).
Where a SMILES comes first, the peptide text is derived from it. Bridges are numbered along the chain shown (N, C = ends).

What was measured:
[1] = test system: cells of rat pituitary glands; assay: in vitro inhibition of basal growth hormone secretion in rat pituitary cell cultures, side-by-side with somatostatin; type: cell-based; conditions: substantially pure peptide, in words
Experimental: To determine the effectiveness of the peptides to inhibit the release of growth hormone, in vitro assays are carried out using both somatostatin-28and somatostatin-25 in side-by-side comparison with equimolar concentrations of somotostatin having a known effectiveness to inhibit the release of growth hormone by pituitary cells. Cultures are used which include cells of rat pituitary glands removed some four to five days previously. Both cultures of a defined standard medium and cultures which are considered optimal for the secretion of growth hormone, as a result of having additions of either 2% or 10% of serum from a foetal calf, are used for the comparative testing between either somatostatin and somatostatin-28 or between somatostatin and somatostatin-25.
(§1) The statistical analysis of the results is carried out generally in accordance with the EXBIOL program reported in the article by Sakiz, Excerpta Medica, Int. Cong. Ser. No. 83 (1964), pp. 225-229.

[2] = test system: secretion of growth hormone; assay: in vivo inhibition of growth hormone secretion stimulated by morphine in rats; conditions: in words
Experimental: as §1

[3] = juvenile-type diabetics, complete absence of circulating insulin; cited from earlier work

| Molecule | potency versus somatostatin in inhibiting the release of GH in vitro [1] | activity versus somatostatin to inhibit growth hormone secretion stimulated by morphine [2] | diminution of fasting hyperglycemia [3] |
| --- | --- | --- | --- |
| CSCC[C@H](NC(=O)[C@H](C)NC(=O)[C@@H]1CCCN1C(=O)[C@H](CC(N)=O)NC(=O)[C@@H](N)CO)C(=O)N[C@@H](C)C(=O)N1CCC[C@H]1C(=O)N[C@@H](CCCNC(=N)N)C(=O)N[C@@H](CCC(=O)O)C(=O)N[C@@H](CCCNC(=N)N)C(=O)N[C@@H](CCCCN)C(=O)N[C@@H](C)C(=O)NCC(=O)N[C@H]1CSSC[C@@H](C(=O)O)NC(=O)[C@H](CO)NC(=O)[C@H]([C@@H](C)O)NC(=O)[C@H](Cc2ccccc2)NC(=O)[C@H]([C@@H](C)O)NC(=O)[C@H](CCCCN)NC(=O)[C@H](Cc2c[nH]c3ccccc23)NC(=O)[C@H](Cc2ccccc2)NC(=O)[C@H](Cc2ccccc2)NC(=O)[C@H](CC(N)=O)NC(=O)[C@H](CCCCN)NC1=O [somatostatin-25] (H-SNPAMAPRERKAGCKNFFWKTFTSC-OH; disulfide 14-25) | more potent than somatostatin | much more active than somatostatin |  |
| CSCC[C@H](NC(=O)[C@H](C)NC(=O)[C@@H]1CCCN1C(=O)[C@H](CC(N)=O)NC(=O)[C@H](CO)NC(=O)[C@H](CC(N)=O)NC(=O)[C@H](C)NC(=O)[C@@H](N)CO)C(=O)N[C@@H](C)C(=O)N1CCC[C@H]1C(=O)N[C@@H](CCCNC(=N)N)C(=O)N[C@@H](CCC(=O)O)C(=O)N[C@@H](CCCNC(=N)N)C(=O)N[C@@H](CCCCN)C(=O)N[C@@H](C)C(=O)NCC(=O)N[C@H]1CSSC[C@@H](C(=O)O)NC(=O)[C@H](CO)NC(=O)[C@H]([C@@H](C)O)NC(=O)[C@H](Cc2ccccc2)NC(=O)[C@H]([C@@H](C)O)NC(=O)[C@H](CCCCN)NC(=O)[C@H](Cc2c[nH]c3ccccc23)NC(=O)[C@H](Cc2ccccc2)NC(=O)[C@H](Cc2ccccc2)NC(=O)[C@H](CC(N)=O)NC(=O)[C@H](CCCCN)NC1=O [somatostatin-28] | more potent than somatostatin | much more active than somatostatin |  |
| somatostatin: tetradecapeptide somatostatin characterized by Guillemin et al., U.S. Pat. No. 3,904,594 (H-AGCKNFFWKTFTSC-OH; disulfide 3-14; ends not checked; UniProt P61278 103-116, looked up) |  |  | ≤ 50% |
